Experimental data published in BindingDB's records for doi:10.7270/Q2251GJ9 (The Scripps Research Institute Molecular Screening Center, 2007).
pEC50: −log10 of the molar value. Counter-ions that a name gives are not always drawn.

Target: Sphingosine 1-phosphate receptor 1 (Homo sapiens, UniProt P21453)
Experiment: direct activation of human S1P1 – cell-based, agonist mode, 60K MLSMR set, dose response (AID 468)
[1] = inactive by the depositor's call

Sequence of Sphingosine 1-phosphate receptor 1 (P21453 whole entry): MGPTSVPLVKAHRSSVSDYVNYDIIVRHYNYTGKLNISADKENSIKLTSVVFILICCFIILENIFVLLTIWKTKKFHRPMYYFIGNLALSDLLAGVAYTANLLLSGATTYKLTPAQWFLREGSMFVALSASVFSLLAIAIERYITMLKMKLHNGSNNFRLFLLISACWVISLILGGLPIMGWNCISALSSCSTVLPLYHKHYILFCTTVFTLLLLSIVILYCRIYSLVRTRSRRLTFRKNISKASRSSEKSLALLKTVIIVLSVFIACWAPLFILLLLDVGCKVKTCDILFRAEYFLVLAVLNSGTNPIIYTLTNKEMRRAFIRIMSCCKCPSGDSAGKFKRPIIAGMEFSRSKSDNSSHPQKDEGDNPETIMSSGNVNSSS

Row | pEC50 | pEC50 [1] | SMILES
1 | 5.08 | – | Fc1ccc(COc2ccc(C=Nn3cnnc3)cc2)cc1 [1-[4-[(4-fluorophenyl)methoxy]phenyl]-N-(1,2,4-triazol-4-yl)methanimine]
2 | – | 4.58 | CC(=O)N1C=CN(C(C)=O)C(c2cn(C)c3ccccc23)C1c1cn(C)c2ccccc12 (configuration not stated) [1-[4-acetyl-2,3-bis(1-methyl-3-indolyl)-2,3-dihydropyrazin-1-yl]ethanone]
3 | 5.31 | – | COc1ccc(C(c2c(O)ccc3ccccc23)N2CCOCC2)c(OC)c1 (configuration not stated) [1-[(2,4-dimethoxyphenyl)-(4-morpholinyl)methyl]-2-naphthalenol]
4 | – | 4.93 | CCc1ccc(-c2nc(CSCC(=O)N3CCN(c4ccccn4)CC3)c(C)o2)cc1 [1-[({[2-(4-ethylphenyl)-5-methyl-1,3-oxazol-4-yl]methyl}thio)acetyl]-4-pyridin-2-ylpiperazine]
5 | – | 4.87 | Cc1cccc(-c2nc(CSCC(=O)N3CCN(c4ccccn4)CC3)c(C)o2)c1 [1-[({[5-methyl-2-(3-methylphenyl)-1,3-oxazol-4-yl]methyl}thio)acetyl]-4-pyridin-2-ylpiperazine]
6 | 5.63 | – | Cc1ccc(-c2csc3ncnc(Sc4nnc(CN5CCCCCC5=O)o4)c23)cc1 [1-[[5-[5-(4-methylphenyl)thieno[2,3-d]pyrimidin-4-yl]sulfanyl-1,3,4-oxadiazol-2-yl]methyl]azepan-2-one]
7 | < 5.00 | – | Nc1nnnn1N=C/C(Br)=C/c1ccccc1 [1-[[(Z)-2-bromanyl-3-phenyl-prop-2-enylidene]amino]-1,2,3,4-tetrazol-5-amine]
8 | – | 4.84 | CC(=O)N1CCCc2cc(S(=O)(=O)NCCC3=CCCCC3)ccc21 [1-acetyl-N-(2-cyclohex-1-en-1-ylethyl)-1,2,3,4-tetrahydroquinoline-6-sulfonamide]
9 | < 4.02 | – | COc1cc2c(cc1OC)C(C)N(C(=O)c1cc3ccccc3o1)CC2 (configuration not stated) [1-benzofuran-2-yl-(6,7-dimethoxy-1-methyl-3,4-dihydro-1H-isoquinolin-2-yl)methanone]
10 | – | 4.86 | Cc1nn(Cc2ccccc2)c(C)c1C(=O)OCC(=O)c1cc(C)n(C2CC2)c1C [1-benzyl-3,5-dimethyl-pyrazole-4-carboxylic acid [2-(1-cyclopropyl-2,5-dimethyl-pyrrol-3-yl)-2-keto-ethyl] ester]
11 | < 4.02 | – | O=C(NCc1ccc2c(c1)OCO2)C1CC(=O)N(C2CCCCCCC2)C1 (configuration not stated) [1-cyclooctyl-5-keto-N-piperonyl-pyrrolidine-3-carboxamide]
12 | 5.94 | – | Cn1c(-c2c(N)n(C3CCCC3)c3nc4ccccc4nc23)nc2ccccc21 [1-cyclopentyl-3-(1-methyl-2-benzimidazolyl)-2-pyrrolo[3,2-b]quinoxalinamine]
13 | 5.56 | – | C=CS(=O)(=O)c1ccc(Oc2ccc(S(=O)(=O)C=C)cc2)cc1 [1-ethenylsulfonyl-4-(4-ethenylsulfonylphenoxy)benzene]
14 | – | 4.96 | Cc1nc(C)c(C(=O)Nc2ccc(Oc3ccccc3)cc2)o1 [2,4-dimethyl-N-(4-phenoxyphenyl)-1,3-oxazole-5-carboxamide]
15 | 5.32 | – | O=C(c1ccccc1)C(CCC(CN1CCOCC1)C(=O)c1ccccc1)CN1CCOCC1 (configuration not stated) [2,5-bis(4-morpholinylmethyl)-1,6-diphenylhexane-1,6-dione;hydrochloride]
16 | 4.87 | – | CCCCc1ccc(C2C(C#N)C(=N)SC(=N)C2C#N)s1 (configuration not stated) [2,6-bis(azanyl)-4-(5-butylthiophen-2-yl)-4H-thiopyran-3,5-dicarbonitrile]
17 | < 4.02 | – | COCCn1c(C)cc(C(=O)CSc2nc3ccccc3o2)c1C [2-(1,3-benzoxazol-2-ylsulfanyl)-1-[1-(2-methoxyethyl)-2,5-dimethyl-pyrrol-3-yl]ethanone]
18 | 5.99 | – | O=C(CSc1nc2ccccc2o1)Nc1ccc(N2CCOCC2)c(Cl)c1 [2-(1,3-benzoxazol-2-ylsulfanyl)-N-(3-chloranyl-4-morpholin-4-yl-phenyl)ethanamide]
19 | – | 4.24 | CC1CCc2nc(NC(=O)CSc3nc4ccccc4o3)sc2C1 (configuration not stated) [2-(1,3-benzoxazol-2-ylsulfanyl)-N-(6-methyl-4,5,6,7-tetrahydro-1,3-benzothiazol-2-yl)acetamide]
20 | 5.22 | – | CCCCn1nnnc1SCC(=O)c1ccc(C)c(C)c1 [2-(1-Butyl-1H-tetrazol-5-ylsulfanyl)-1-(3,4-dimethyl-phenyl)-ethanone]
21 | – | 4.99 | COc1ccc(-n2c(C)cc(C(=O)COC(=O)Cn3cnc4ccccc43)c2C)cc1 [2-(1-benzimidazolyl)acetic acid [2-[1-(4-methoxyphenyl)-2,5-dimethyl-3-pyrrolyl]-2-oxoethyl] ester]
22 | 5.70 | – | CCC(C)c1ccc2oc(-c3ccc(NC(=O)Cn4cnc5c(=O)n(C)c(=O)n(C)c54)cc3)nc2c1 (configuration not stated) [2-(2,6-diketo-1,3-dimethyl-purin-9-yl)-N-[4-(5-sec-butyl-1,3-benzoxazol-2-yl)phenyl]acetamide]
23 | < 4.02 | – | Clc1ccc(OCc2nnc(-c3ccccc3Br)o2)c(Cl)c1 [2-(2-bromophenyl)-5-[(2,4-dichlorophenoxy)methyl]-1,3,4-oxadiazole]

Continued, compound first:

Row | SMILES | pEC50 | pEC50 [1]
24 | O=C(Nc1cccc(C(F)(F)F)c1)C1CCCN1S(=O)(=O)c1cccc2cccnc12 (configuration not stated) [1-(8-quinolinylsulfonyl)-N-[3-(trifluoromethyl)phenyl]-2-pyrrolidinecarboxamide] | 5.32 | –
25 | O=C(Nc1ccc(C(F)(F)F)cc1)C1CCCN1S(=O)(=O)c1cccc2cccnc12 (configuration not stated) [1-(8-quinolinylsulfonyl)-N-[4-(trifluoromethyl)phenyl]-2-pyrrolidinecarboxamide] | 5.01 | –
26 | O=C(C1CCC1)N1CCc2cc(S(=O)(=O)Nc3ccc4c(c3)OCCO4)ccc21 [1-(cyclobutanecarbonyl)-N-(2,3-dihydro-1,4-benzodioxin-6-yl)-2,3-dihydroindole-5-sulfonamide] | – | 4.41
27 | O=C(C1CC1)N1CCc2cc(S(=O)(=O)NCC3COc4ccccc4O3)ccc21 (configuration not stated) [1-(cyclopropanecarbonyl)-N-(2,3-dihydro-1,4-benzodioxin-3-ylmethyl)-2,3-dihydroindole-5-sulfonamide] | – | 4.85
28 | CCn1nc(-c2ccccc2)nc2c(=O)n(C)c(=O)nc1-2 [1-Ethyl-6-methyl-3-phenyl-1H-pyrimido[5,4-e][1,2,4]triazine-5,7-dione] | 5.45 | –
29 | Cc1cc(C(=O)CSc2nnc(-c3ccco3)o2)c(C)n1-c1ccc2c(c1)OCCO2 [1-[1-(2,3-dihydro-1,4-benzodioxin-6-yl)-2,5-dimethyl-3-pyrrolyl]-2-[[5-(2-furanyl)-1,3,4-oxadiazol-2-yl]thio]ethanone] | 5.12 | –
30 | Cc1cc(C(=O)CSc2nnnn2C)c(C)n1-c1cccc(F)c1 [1-[1-(3-fluorophenyl)-2,5-dimethyl-3-pyrrolyl]-2-[(1-methyl-5-tetrazolyl)thio]ethanone] | 5.65 | –
31 | COc1ccc(-n2c(C)cc(C(=O)CSc3nnc(-c4cccs4)o3)c2C)cc1 [1-[1-(4-methoxyphenyl)-2,5-dimethyl-3-pyrrolyl]-2-[(5-thiophen-2-yl-1,3,4-oxadiazol-2-yl)thio]ethanone] | 5.69 | –
32 | COc1ccc(-n2c(C)c(C(C)=O)c3cc(O)ccc32)cc1 [1-[1-(4-methoxyphenyl)-2-methyl-5-oxidanyl-indol-3-yl]ethanone] | – | 4.81
33 | CCN(CC)c1ccc(-n2c(C)c(C(C)=O)c(C(C)=O)c2C)cc1 [1-[1-[4-(diethylamino)phenyl]-4-ethanoyl-2,5-dimethyl-pyrrol-3-yl]ethanone] | – | 4.94
34 | Cc1csc(SCC(=O)c2cc(C)n(Cc3cccs3)c2C)n1 [1-[2,5-dimethyl-1-(2-thenyl)pyrrol-3-yl]-2-[(4-methylthiazol-2-yl)thio]ethanone] | 5.17 | –
35 | Cc1ccc(-n2c(C)cc(C(=O)CSc3nnnn3C)c2C)cc1 [1-[2,5-dimethyl-1-(4-methylphenyl)-3-pyrrolyl]-2-[(1-methyl-5-tetrazolyl)thio]ethanone] | 5.32 | –
36 | Cc1cc(C)n2nc(SCC(=O)c3cc(C)n(-c4cc(C)on4)c3C)nc2n1 [1-[2,5-dimethyl-1-(5-methyl-1,2-oxazol-3-yl)pyrrol-3-yl]-2-[(5,7-dimethyl-[1,2,4]triazolo[1,5-a]pyrimidin-2-yl)sulfanyl]ethanone] | 5.38 | –
37 | CC(Oc1ccccc1Br)C(=O)N1CCc2ccccc21 (configuration not stated) [1-[2-(2-bromophenoxy)propanoyl]indoline] | 5.17 | –
38 | Cc1ccc(OCCn2cc(C(=N)NO)c3ccccc32)cc1C [1-[2-(3,4-dimethylphenoxy)ethyl]-N'-hydroxy-1H-indole-3-carboximidamide] | 5.01 | –
39 | CCOc1ccc(-c2nc(CSCC(=O)N3CCN(c4cccc(OC)c4)CC3)c(C)o2)cc1 [1-[4-(3-methoxyphenyl)piperazino]-2-[(5-methyl-2-p-phenetyl-oxazol-4-yl)methylthio]ethanone] | 5.04 | –
40 | O=C(NCc1ccco1)C1CCN(C(=O)c2cc3sccc3n2Cc2ccc(Cl)cc2)CC1 [1-[4-(4-chlorobenzyl)thieno[3,2-b]pyrrole-5-carbonyl]-N-(2-furfuryl)isonipecotamide] | – | 4.98
41 | CC(C)(CC(=O)N1CCN(c2ccc(Cl)cc2)CC1)CC1=NS(=O)(=O)c2ccccc2N1 [1-[4-(4-chlorophenyl)-1-piperazinyl]-4-(1,1-dioxo-4H-1,2,4-benzothiadiazin-3-yl)-3,3-dimethyl-1-butanone] | – | 4.98
42 | Cc1nnc(SCC(=O)N2CCC(c3noc4ccc(F)cc34)CC2)s1 [1-[4-(5-fluoranyl-1,2-benzoxazol-3-yl)piperidin-1-yl]-2-[(5-methyl-1,3,4-thiadiazol-2-yl)sulfanyl]ethanone] | 5.37 | –
43 | CCCC(=O)c1ccc(N2CCN(C(=O)c3ccccc3Br)CC2)c(F)c1 [1-[4-[4-(2-bromobenzoyl)piperazin-1-yl]-3-fluorophenyl]butan-1-one] | – | 4.93
44 | CC(=O)c1ccc(N2CCN(c3ccc(C(F)(F)F)cn3)CC2)cc1 [1-[4-[4-[5-(trifluoromethyl)-2-pyridinyl]-1-piperazinyl]phenyl]ethanone] | – | 4.53
45 | Fc1ccccc1COc1ccc(C=Nn2cnnc2)cc1 [1-[4-[(2-fluorophenyl)methoxy]phenyl]-N-(1,2,4-triazol-4-yl)methanimine] | 5.34 | –
46 | CCCCCn1c(=O)c(C(=O)NCc2ccncc2)c(O)c2ccccc21 [1-amyl-2-hydroxy-4-keto-N-(4-pyridylmethyl)quinoline-3-carboxamide] | – | 4.70
47 | CCn1nc(-c2cccs2)nc2c(=O)n(C)c(=O)nc1-2 [1-ethyl-6-methyl-3-thiophen-2-yl-pyrimido[5,4-e][1,2,4]triazine-5,7-dione] | < 5.00 | –
